In US20040248919A1, “Fluorinated trienes and their use as rxr modulators” (priority 2001, published 2004):

Key:
rodent models of NIDDM = assay: Rodent models of NIDDM; assay type: in vivo
From the text: Rodents that are genetically defective in the leptin pathway are commonly used as animal models of non-insulin dependant diabetes mellitus (NIDDM). db/db mice and ZDF rats develop frank diabetes that progresses to include β-cell failure and the accompanying precipitous drop in plasma insulin levels. […] All three rodent models were used to examine the efficacy of oral dosing with compounds of the invention on diabetes, insulin sensitivity, food consumption and body weight gain.
Mice (obtained from Jackson Laboratory), ZDF rats (obtained from Genetic Models Inc.) and fa/fa rats (obtained from either Charles River, or Harlan) are maintained on 12-hour light/dark cycle. Mice (age 28-42 days) are caged in groups of 5-6. Rats (age 7 weeks) are housed individually. All animals are allowed ad libitum access to water and food (Purina 5015 for mice and 5008 for rats). Compounds are administered at the specified doses by oral gavage on the morning of each day of any experiment. Blood samples are obtained 3 hours after dosing from fed animals under anesthesia and collected into heparinized capillary tubes from the tail vein.

[1] = tested on: transgenic mice carrying the human apo A-I gene; assay: Transgenic mice carrying the human apo A-I gene; assay type: in vivo; conditions: transgenic mouse model
From the text: Mice transgenic for the human apolipoprotein A-I gene (obtained from Jackson Laboratory) are used to evaluate PPARγ mediated effects on high density lipoprotein (HDL) cholesterol. The mice are handled as described above for db/db mice, except that they are fed Purina 5001.

db/db mice = assay: db/db mice, oral dosing; assay type: in vivo, mouse; conditions: 7 week old db/db mice, 300 mg/kg by daily oral gavage

Compound	Blood glucose levels (rodent models of NIDDM)	Thyroid hormone axis (rodent models of NIDDM)	Triglycerides (rodent models of NIDDM)	Triglycerides [1]	Plasma glucose (db/db mice)
Cc1cc2c(cc1C1(c3ccc(C(=O)O)cn3)CC1)C(C)(C)CCC2(C)C [LG100268, 6-[1-(3,5,5,8,8-pentamethyl-5,6,7,8-tetrahydronaphthalen-2-yl)cyclopropyl]nicotinic acid]	lower blood glucose levels	suppress the thyroid hormone axis	raise triglycerides	raises triglycerides	
CN(C)C(=N)N=C(N)N [metformin]					lowers plasma glucose
